Data set [1] has as its system Resistant Plutella xylostella R1 (multi-resistant larvae having the G4946E resistance mutation). As to the kind of experiment: Resistant Plutella xylostella R1 (Diamond back moth) larvicide L3, feeding/contact, sprayed Chinese cabbage leaves. The note with it: Plutella xylostella, 96 h, read-out: control of the resistant strain of Plutella xylostella R1. Format: in vivo.

Data set [2] has as its system Resistant Plutella xylostella R4 (carries the RyR mutation G4946E). Put plainly: Resistant Plutella xylostella R4 (Diamond back moth) larvicide L1, feeding/contact, artificial diet in 24-well plates. It is filed as in vivo. The note with it: Plutella xylostella, 192 h, read-out: control of the resistant strain of Plutella xylostella R4. The procedure: Resistant Plutella xylostella R4 (Diamond back moth) larvicide L1, feeding/contact 24-well microtiter plates with artificial diet were treated with aqueous test solutions prepared from 10′000 ppm DMSO stock solutions by pipetting. After drying, around 30 Plutella eggs were pipetted through a plastic stencil onto a gel blotting paper and the plate was closed with it. The samples were assessed for mortality in comparison to untreated samples 8 days after infestation.
Chlorantraniliprole was used as standard and a resistance factor of 242 was obtained for this strain
Plutella xylostella resistant strain R4 originated in the lab in 2021 from crossing the R1 strain with a lab-reared susceptible P. xylostella strain (SUS). R4 can be reared and tested on artificial diet and also carries the RyR mutation G4946E conferring resistance to diamides. The strain is selected approximately every two weeks with chlorantraniliprole. The following compounds, according to the present invention, gave at least 80% control of the resistant strain of Plutella xylostella R4 at 50 ppm or below: P11, P18, P26, P31, P33, P34, P36, P38, P42, P43, P46, P49, P50, P52, P56, P58, P60, P61, P63, P64, P65, P66, P67, P73, P76, P84, P97, P99, P102, P105.

Data set [3] concerns Plutella xylostella (Diamond back moth) ryanodine receptor, containing the G4946E resistance mutation. Put plainly: In vitro calcium fluorescence assay (Fluo-8 NW, FDSS) in human embryonic kidney cells expressing the ryanodine receptor. It is filed as cell-based. The note with it: table; EC50 (compound)/EC50 (cyantraniliprole); G4946E RyR in HEK cells. The procedure, abridged:
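Fluo-8 NW-loaded cells, compounds at 10 rates, intracellular calcium fluorescence read on FDSS. EC50 from dose-response curves, normalized to in-assay cyantraniliprole as REC50 = EC50(compound)/EC50(cyantraniliprole).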

In the case of `NC(=O)c1cc(Br)cc(Cl)c1NC(=O)c1cc(Cn2cc(C(F)(F)F)nn2)nn1-c1ncccc1Cl`, the melting point (in general, the temperature, or range, at which the solid turns liquid) is 135 to 140 °C.
The same measure, in the same setting: under `NC(=O)c1cc(Cl)cc(Br)c1NC(=O)c1cc(Cn2cc(C(F)(F)F)nn2)nn1-c1ncccc1Cl` stands > 250 °C; under `Cc1cc(I)cc(C(N)=O)c1NC(=O)c1cc(C(F)F)nn1-c1ncccc1Cl`, 155 to 160 °C.
As for `Cc1cc(Cl)cc(C(N)=O)c1NC(=O)c1cc(C2(F)CC2)nn1-c1ncccc1Cl`, the melting point is 225 to 230 °C.
As to `Cc1cc(Cl)cc(C(N)=O)c1NC(=O)c1cc(C[S+](C)[O-])nn1-c1ncccc1Cl` (stereo not drawn), the melting point was in the range of 125 to 130 °C.
On the same count and under the same terms, with `Cc1cc(Cl)cc(C(N)=O)c1NC(=O)c1cc(Br)nn1-c1ncccn1` the figure was 187 to 198 °C; with `Cc1cc(Cl)cc(C(N)=O)c1NC(=O)c1cc(CS(C)(=O)=O)nn1-c1ncccc1Cl`, 140 to 145 °C; with `COCc1cc(C(=O)Nc2c(C)cc(Cl)cc2C(N)=O)n(-c2ncccc2Cl)n1`, 225 to 230 °C.
The same measure, in the same setting: with `Cc1cc(C#N)cc(C(N)=O)c1NC(=O)c1cc(COCc2ccc(Cl)cc2)nn1-c1ncccc1Cl` [Compound P12, N-(2-carbamoyl-4-cyano-6-methyl-phenyl)-5-[(4-chlorophenyl)methoxymethyl]-2-(3-chloro-2-pyridyl)pyrazole-3-carboxamide] the figure was 109 to 112 °C; with `Cc1cc(Br)cc(C(N)=O)c1NC(=O)c1cc(Cn2cc(C(F)(F)F)nn2)nn1-c1ncccc1Cl` [Compound P35, N-(4-bromo-2-carbamoyl-6-methyl-phenyl)-2-(3-chloro-2-pyridyl)-5-[[4-(trifluoromethyl)triazol-1-yl]methyl] pyrazole-3-carboxamide], 190 to 195 °C.
On to `NC(=O)c1cc(Br)cc(Cl)c1NC(=O)c1cc(Cn2ncc(C(F)(F)F)n2)nn1-c1ncccc1Cl` [Compound P37, N-(4-bromo-2-carbamoyl-6-chloro-phenyl)-2-(3-chloro-2-pyridyl)-5-[[4-(trifluoromethyl)triazol-2-yl]methyl]pyrazole-3-carboxamide], for which the melting point was in the range of 185 to 190 °C.
Still for that read-out and setting: with `Cc1cc(Br)cc(C(N)=O)c1NC(=O)c1cc(I)nn1-c1ncccc1Cl` [Compound P39, N-(4-bromo-2-carbamoyl-6-methyl-phenyl)-2-(3-chloro-2-pyridyl)-5-iodo-pyrazole-3-carboxamide] the figure was > 250 °C; with `NC(=O)c1cc(Br)cc(F)c1NC(=O)c1cc(Cn2nnc(C(F)(F)F)n2)nn1-c1ncccc1Cl` [Compound P41, N-(4-bromo-2-carbamoyl-6-fluoro-phenyl)-2-(3-chloro-2-pyridyl)-5-[[5-(trifluoromethyl)tetrazol-2-yl]methyl]pyrazole-3-carboxamide], 110 to 115 °C.
Same read-out and setting: under `COc1cc(C(=O)Nc2c(Br)cc(Cl)cc2C(N)=O)n(-c2ncccc2Cl)n1` [Compound P55, N-(2-bromo-6-carbamoyl-4-chloro-phenyl)-2-(3-chloro-2-pyridyl)-5-methoxy-pyrazole-3-carboxamide] stands 205 to 210 °C; under `Cc1cc(Cl)cc(C(N)=O)c1NC(=O)c1cc(CC#N)nn1-c1ncccc1Cl` [Compound P70, N-(2-carbamoyl-4-chloro-6-methyl-phenyl)-2-(3-chloro-2-pyridyl)-5-(cyanomethyl)pyrazole-3-carboxamide], 180 to 185 °C.
Regarding `Cc1cc(Cl)cc(C(N)=O)c1NC(=O)c1cc(C2CC2)nn1-c1ncccc1Cl` [Compound P76, N-(2-carbamoyl-4-chloro-6-methyl-phenyl)-2-(3-chloro-2-pyridyl)-5-cyclopropyl-pyrazole-3-carboxamide], the pest or weed control at 50 µg/mL in data set [1] and in data set [2] was ≥ 80% each time. For the same compound, the “REC50 (Compound of the invention)” value in data set [3] was 0.42.
